Reference: BindingDB's records for doi:10.1021/jm960573f (University of Washington, 1997)
Several values for one entry are separate records, joined by “and”; a condition that tells them apart may be missing. Equal entries are not always repeated.

Experiment: Binding affinity was determined in a crude membrane preparation from guinea pig brain by displacement of [3H]DPDPE from Opioid receptor delta 1

For `O=C1C(=Cc2ccc(-c3ccccc3)cc2)C[C@@]2(O)[C@H]3Cc4ccc(O)c5c4C2(CCN3CC2CC2)[C@H]1O5`, which Ki is on record?
The Ki was 75 nM and 47 nM.

For `O=C1C(=Cc2ccc3ccccc3c2)C[C@@]2(O)[C@H]3Cc4ccc(O)c5c4C2(CCN3CC2CC2)[C@H]1O5` [4-cyclopropylmethyl-10,17-dihydroxy-15-[1-(2-naphthyl)-(E)-methylidene]-(5R,13R,17S)-12-oxa-4-azapentacyclo[9.6.1.01,13.05,17.07,18]octadeca-7(18),8,10-trien-14-one], which Ki is on record?
The Ki was 39 nM.

Which Ki does the source give for `O=C1C(=Cc2cccc3ccccc23)C[C@@]2(O)[C@H]3Cc4ccc(O)c5c4C2(CCN3CC2CC2)[C@H]1O5` [4-cyclopropylmethyl-10,17-dihydroxy-15-[1-(1-naphthyl)-(Z)-methylidene]-(5R,13R,17S)-12-oxa-4-azapentacyclo[9.6.1.01,13.05,17.07,18]octadeca-7(18),8,10-trien-14-one] here?
The Ki was 4.6 nM and 0.7 nM.

Which Ki does the source give for `O=C1C(=Cc2c3ccccc3cc3ccccc23)C[C@@]2(O)[C@H]3Cc4ccc(O)c5c4C2(CCN3CC2CC2)[C@H]1O5` here?
The Ki was 2.4 nM and 17 nM.

With `O=C1/C(=C/c2ccccc2)C[C@@]2(O)[C@H]3Cc4ccc(O)c5c4[C@@]2(CCN3CC2CC2)[C@H]1O5` [7-Benzylidenenaltrexone] as the molecule, how does the Ki read?
The Ki was 6.2 nM.

With `O=C1/C(=C\c2ccccc2)C[C@@]2(O)[C@H]3Cc4ccc(O)c5c4[C@@]2(CCN3CC2CC2)[C@H]1O5` as the molecule, how does the Ki read?
The Ki was 3.7 nM.
